In test [1] the test system is Wnt/β-catenin pathway. Briefly: Wnt reporter assay (TCF-Luciferase, Firefly) in DBTRG-05MG cells. The conditions noted are these: Homo sapiens, TCF-Luciferase (Firefly) read out, 24 hours after compound addition, range given with mixed units nM and μM, read-out: IC50 value in the reporter assay. Format: cell-based. The essentials: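 DBTRG-05MG cells carrying a 3×(4×TCF)-driven Firefly luciferase reporter, with Renilla also read, were plated 36 h before an 8-point compound dilution series (0.6% DMSO). Lysis and Dual-Luciferase readout followed 24 h after compound addition. Firefly and Renilla were each expressed as % of control and fitted to a four-parameter sigmoid.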
A general note: A reporter such as luciferase makes a cellular process visible.

Test [2] has as its system DBTRG cells. Briefly: Soft agar anchorage independent assay. The format is cell-based. The conditions noted are these: 504 h; DBTRG colonies scored 3 weeks after plating; range over the listed examples, given with mixed units nM and μM. As to the method: DBTRG cells were seeded into a 24-well format in the presence of […] carrier alone or compound (0.6% DMSO (v/v)). Each well is composed of two agar layers: the bottom layer consists of 0.6% Agar while the top has 0.35% Agar plus cells and compound. Cells (2500 per well) were incubated with […] dilution compound the day of the plating and the colonies were scored 3 weeks later after o/n staining with MTT solution. Imaging and counting of the colonies was done with the GelCount™ instrument (Oxford Optronix, UK). For IC50 determination the data were expressed as % of control, values were calculated using XLFit version 4.2, with a four parameters sigmoid 5 function (XLFit model 205).

`COCCOc1ccc2c(c1)n(C[C@H]1CC[C@H](c3nnc(-c4cnn(C)c4)o3)CC1)c(=O)n2C` [Example 147]: the concentration for half-maximal inhibition (IC50) (as a rule, the concentration that gives 50% inhibition) was in the range of 35 to 23000 nM in test [1] and 32 to 2900 nM in test [2].
The like results for `COCCOc1cc2c(cc1F)n(C)c(=O)n2C[C@H]1CC[C@H](C(=O)Nc2ccncc2)CC1` [Example 186] were, in that order, 35 to 23000 nM and 32 to 2900 nM.
The like results for `COCCOc1cc2c(cc1F)n(C)c(=O)n2C[C@H]1CC[C@H](c2nnc(-c3cnn(C)c3)o2)CC1` [Example 185] were, in that order, 35 to 23000 nM and 32 to 2900 nM.
For the compound `COc1cc2c(cc1F)n(C)c(=O)n2C[C@H]1CC[C@H](C(=O)N2CCN(C(C)=O)CC2)CC1` [Example 161], the IC50 in test [1] lay within 35 to 23000 nM; in test [2], 32 to 2900 nM.
On to `COc1ccc2c(c1)n(C[C@H]1CC[C@H](C(=O)Nc3ccncc3)CC1)c(=O)n2C` [Example 29], for which the figures for the IC50 in test [1] and in test [2] were 35 to 23000 nM and 32 to 2900 nM, respectively.
Consider `COc1cc2c(cc1F)n(C)c(=O)n2C[C@H]1CC[C@H](C(=O)Nc2ccncc2)CC1` [Example 1, Trans-4-(5-Fluoro-6-Methoxy-3-methyl-2-oxo-2,3-dihydro-benzoimidazol-1-ylmethyl)-cyclohexanecarboxylic acid pyridine-4-ylamide], for which the IC50 in test [1] lay within 35 to 23000 nM; in test [2], 32 to 2900 nM.
The like results for `COCCOc1ccc2c(c1)n(C[C@H]1CC[C@H](C(=O)N3CCN(C(C)=O)CC3)CC1)c(=O)n2C` [Example 71] were, in that order, 35 to 23000 nM and 32 to 2900 nM.
The like results for `COc1ccc2c(c1)n(C[C@H]1CC[C@H](c3nnc(-c4cnn(C)c4)o3)CC1)c(=O)n2C` [Example 106] were, in that order, 35 to 23000 nM and 32 to 2900 nM.
`Cn1c(=O)n(C[C@H]2CC[C@H](C(=O)Nc3ccncc3)CC2)c2cc(C(F)(F)F)ccc21` [Example 22]: the half-inhibitory concentration (IC50) is 35 to 23000 nM in test [1] and 32 to 2900 nM in test [2].
The like results for `COc1ccc2c(c1)n(C[C@H]1CC[C@H](C(=O)N3C[C@@H](C)O[C@@H](C)C3)CC1)c(=O)n2C` [Example 61] were, in that order, 35 to 23000 nM and 32 to 2900 nM.
Consider `COCCOc1ccc2c(c1)n(C[C@H]1CC[C@H](C(=O)Nc3ccnnc3)CC1)c(=O)n2C` [Example 121], for which the half-inhibitory concentration (IC50) in test [1] is 35 to 23000 nM; in test [2], 32 to 2900 nM.
The like results for `COCCOc1ccc2c(c1)n(C[C@H]1CC[C@H](C(=O)Nc3ccncc3)CC1)c(=O)n2C` [Example 72] were, in that order, 35 to 23000 nM and 32 to 2900 nM.
The like results for `CC(=O)N1CCN(C(=O)[C@H]2CC[C@H](Cn3c(=O)n(C)c4ccc(C5CC5)cc43)CC2)CC1` [Example 68] were, in that order, 35 to 23000 nM and 32 to 2900 nM.
As to `C#Cc1ccc2c(c1)n(C[C@H]1CC[C@H](C(=O)N3CCN(C(C)=O)CC3)CC1)c(=O)n2C` [Example 14, 3-[trans-4-(4-Acetyl-piperazine-1-carbonyl)-cyclohexylmethyl]-5-ethynyl-1-methyl-1,3-dihydro-benzoimidazol-2-one], the IC50 was in the range of 35 to 23000 nM in test [1] and 32 to 2900 nM in test [2].
The like results for `COc1cc2c(cc1F)n(C)c(=O)n2C[C@H]1CC[C@H](c2nnc(-c3cnn(C)c3)o2)CC1` [Example 182] were, in that order, 35 to 23000 nM and 32 to 2900 nM.
The like results for `COc1ccc2c(c1)n(C[C@H]1CC[C@H](c3cc(-c4cnn(C)c4)n[nH]3)CC1)c(=O)n2C` [Example 153] were, in that order, 35 to 23000 nM and 32 to 2900 nM.
For `COCC#Cc1ccc2c(n1)n(C[C@H]1CC[C@H](C(=O)Nc3ccncc3)CC1)c(=O)n2C` [Example 115], the IC50 in test [1] lay in the range of 35 to 23000 nM; in test [2], 32 to 2900 nM.
`COc1ccc2c(c1)n(C[C@H]1CC[C@H](c3nnc(-c4cc(C)on4)o3)CC1)c(=O)n2C` [Example 131]: the 50% inhibitory concentration (IC50) in test [1] is 35 to 23000 nM.
With `Cn1c(=O)n(C[C@H]2CC[C@H](C(=O)Nc3ccnc(N4CCOCC4)c3)CC2)c2cc(Cl)ccc21` [Example 41], the IC50 in test [1] fell in the range of 35 to 23000 nM.
Take `Cn1c(=O)n(C[C@H]2CC[C@H](C(=O)Nc3ccncc3)CC2)c2cc(OC(F)F)ccc21` [Example 165]: the IC50 in test [1] lay in the range of 35 to 23000 nM.
As to `COc1ccc2c(c1)n(C[C@H]1CC[C@H](C(=O)N3CC4(COC4)C3)CC1)c(=O)n2C` [Example 95], the half-inhibitory concentration (IC50) in test [1] was in the range of 35 to 23000 nM.
Take `CONC(=O)C1CCN(C(=O)[C@H]2CC[C@H](Cn3c(=O)n(C)c4ccc(OC)cc43)CC2)CC1` [Example 85]: the IC50 in test [1] lay within 35 to 23000 nM.
Take `Cn1c(=O)n(C[C@H]2CC[C@H](C(=O)Nc3ccncc3)CC2)c2cc(OCCN3CCOCC3)ccc21` [Example 152]: the half-maximal inhibitory concentration (IC50) in test [1] fell in the range of 35 to 23000 nM; in test [2] it was 32 to 2900 nM.
With `Cn1c(=O)n(C[C@H]2CC[C@H](C(=O)Nc3ccncc3)CC2)c2nc(OCC3CCCCO3)ccc21` (stereo partly drawn) [Example 168], the IC50 in test [1] fell in the range of 35 to 23000 nM.

These data come from patent US20140005164A1, “WNT PATHWAY ANTAGONISTS” (Siena Biotech S.p.A., priority 2011, published 2014).
